Read-outs that look alike come from different tables or passages of the source.
Columns and labels:
hTRPC1 = biological target: T1, hTRPC1 (Homo sapiens, UniProt P48995); test: Store-operated Ca2+ entry after thapsigargin in hTRPC1-transfected HEK293 cells; type: cell-based
T1 construct: expressed in transfected cells; host or cells: HEK293 cells
Procedure: Figure 4 Effects of inhibitor compounds on the Ca^2+ response of cells expressing hTRPV1, hTRPV2, or hTRPC1 (A) Effect of compounds on CaCl2 (5 mM)-induced peak fluorescence ratio in non-transfected (nt) or hTRPV2-transfected CHO cells. The extracellular Ca^2+-dependent increase in the ratio of fura-2 fluorescence intensity at 340/380 nm (ΔR, 2 min after addition of chemicals) was plotted as ΔR/R0 after normalising to the initial fluorescence ratio (R0). […] Solid bar, no inhibitor. (B) Effect of compounds on 2-APB (1 mM)/high extracellular CaCl2-induced peak fluorescence ratio in nt or hTRPV1-transfected HEK293 cells. […] (C) Effect of compounds on store-operated Ca^2+ entry in nt or hTRPC1-transfected HEK293 cells. Cells were treated with the endoplasmic reticulum Ca^2+ pump inhibitor thapsigargin and exposed to CaCl2 and the indicated compounds. ΔR was measured 2 min after the addition of CaCl2. […] Data are shown as mean ± SD (n = 5).
[Ca^2+]i was measured by a ratiometric fluorescence method as previously described. […] Fura-2-AM fluorescence was measured using an Aquacosmos fluorescence image processor (Hamamatsu Photonics, Hamamatsu, Japan). The time-course data are presented as the ratio of fluorescence at an excitation wavelength of 340 nm to that at 380 nm. The increase in the fluorescence ratio induced by the TRPV2 agonist 2-APB or high extracellular Ca^2+ (ΔR) was normalized to the initial ratio (R0) before stimulation. The fluorescence relative ratio (ΔR/R0) was plotted as the summary data in the fluorescence imaging analysis.

[1] = test system: cardiomyopathic J2N-k hamsters; test: Cardiomyopathy in J2N-k hamsters in vivo (echocardiography, serum cTN-I, Masson's trichrome fibrosis); design: species or system hamster; settings: 3 weeks
Procedure: Male δ-SG-deficient cardiomyopathic J2N-k and age-matched wild-type J2N-n hamsters (9 weeks old) were purchased from Japan SLC, Inc. (Shizuoka, Japan). Tranilast was ingested mixed with feed (300 mg/kg/day) as described previously, whereas other drugs (Figure 1) were administered orally in the drinking water at doses of 30 mg/kg (except lumin) per day for 3 weeks. In case of lumin, we first performed dose-dependent experiment at dose of 1,10 and100 mg/kg per day for 3 weeks, in order to determine the effective dose. […] After drug treatment, serum cardiac troponin (cTN)-I was measured and echocardiography analysis was performed. Histochemistry of cardiac muscles was performed as previously described. All animal experiments were performed according to the Guidelines for Animal Experimentation of the National Cerebral and Cardiovascular Center Research Institute.
Ventricles were fixed in phosphate-buffered saline containing 10% formalin and embedded in paraffin. Serial sections were cut at a thickness of 5 μm and stained with Masson's trichrome stain for morphological analysis. Sections were viewed under a BX41 light microscope (Olympus, Tokyo, Japan). Images were acquired with an FX380 digital camera (Olympus) and analysed using an FLVFS-LS imaging system (Flovel, Tokyo, Japan).
Fibrosis was assessed by measuring Masson's trichrome-positive areas. Briefly, colour images were converted to binary form by setting the threshold value so as to detect only blue-stained fibrotic areas, which were summed and reported as a percentage of the total.
Cardiac function was evaluated by echocardiography using a Sonos5500 ultrasound system (Hewlett-Packard, Palo Alto, CA, USA) with a 12-MHz transducer and M-mode imaging. The animals were sedated with tribromoethanol (350 mg/kg by intraperitoneal injection) during the process.
Creatine phosphokinase (CK) activity in the medium was determined using an in vitro colorimetric assay kit (CK Test Kit; Wako Pure Chemical Industries, Ltd., Osaka, Japan) according to the manufacturer's protocol The cTN-I level in the serum was measured, while quantitative immunoblotting and immunocytochemistry were performed as previously described. Protein concentration was measured using the bicinchoninic acid assay (Pierce Chemical Co., Rockford, IL, USA) with bovine serum albumin as the standard. All histochemical and physiological analyses were performed by investigators blinded to the drug treatments. Unless otherwise stated, results are presented as the mean ± SD of at least 5 determinations. The unpaired Student's t-test and one-way ANOVA followed by Dunnett's test were used to analyse the data. Values of P < 0.05 (indicated as asterisks in the figures) were considered statistically significant. All cellular measurements were repeated at least 5 times. Representative data are shown.

[2] = hTRPC1-transfected HEK293 cells, thapsigargin, compound 15 μM
[3] = 30 mg/kg per day orally in drinking water

T1 sequence (P48995 whole entry): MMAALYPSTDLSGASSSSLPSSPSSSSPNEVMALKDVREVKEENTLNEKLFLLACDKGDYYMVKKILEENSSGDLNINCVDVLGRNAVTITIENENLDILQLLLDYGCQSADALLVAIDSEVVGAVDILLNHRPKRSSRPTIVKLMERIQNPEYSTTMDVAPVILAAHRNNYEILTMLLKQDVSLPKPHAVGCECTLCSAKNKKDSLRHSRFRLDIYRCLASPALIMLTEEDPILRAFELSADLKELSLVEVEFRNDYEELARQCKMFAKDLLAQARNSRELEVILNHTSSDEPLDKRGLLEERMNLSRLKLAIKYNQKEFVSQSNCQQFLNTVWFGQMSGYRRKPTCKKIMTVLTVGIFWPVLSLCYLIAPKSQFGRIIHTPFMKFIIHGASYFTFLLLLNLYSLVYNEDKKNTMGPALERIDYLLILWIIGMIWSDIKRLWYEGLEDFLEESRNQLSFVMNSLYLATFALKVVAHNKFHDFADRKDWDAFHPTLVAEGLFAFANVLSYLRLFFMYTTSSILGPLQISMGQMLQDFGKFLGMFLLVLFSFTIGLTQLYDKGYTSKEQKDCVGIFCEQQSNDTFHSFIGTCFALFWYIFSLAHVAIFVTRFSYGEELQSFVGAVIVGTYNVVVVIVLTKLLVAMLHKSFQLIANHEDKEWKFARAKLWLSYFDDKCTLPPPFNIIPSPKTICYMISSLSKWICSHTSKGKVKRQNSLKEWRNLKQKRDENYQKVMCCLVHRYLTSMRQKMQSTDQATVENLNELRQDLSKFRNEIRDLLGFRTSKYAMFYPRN

| SMILES | effect on store-operated increase in [Ca2+]i (hTRPC1) | effect on store-operated increase in [Ca2+]i (hTRPC1; [2]) | effect on fibrosis (Masson's trichrome) [1, 3] | effect on fractional shortening (FS) [1, 3] | effect on left ventricular end-diastolic dimension (LVDd) [1, 3] | effect on left ventricular end-systolic dimension (LVDs) [1, 3] | effect on serum level of cTN-I [1, 3] | increase in [Ca2+]i via TRPC1 (hTRPC1; unpublished observation, concentration not given) | effect on cardiac dysfunction (increased LVDs, reduced ejection fraction, decreased fractional shortening) ([1]; 10 mg/kg per day orally) | effect on fibrotic area ([1]; 10 mg/kg per day orally) | effect on the decrease in wall thickness ([1]; 10 mg/kg per day orally) |
| --- | --- | --- | --- | --- | --- | --- | --- | --- | --- | --- | --- |
| NCCOB(c1ccccc1)c1ccccc1 [2-APB, 2-aminoethoxydiphenylborate] | inhibited |  |  |  |  |  |  |  |  |  |  |
| COc1cc(/C=C(\C#N)C(=O)Nc2ccccc2C(=O)O)cc(Cl)c1OC [A3, 2-[(2E)-3-(3-Chloro-4,5-dimethoxyphenyl)-2-cyanoprop-2-enoylamino]benzoic acid] |  | neither A3, A48, A63, nor B6 had any effect | prevented fibrosis | prevented | small effect | prevented the increase | reduced |  |  |  |  |
| CCN1C=CC(=CC=C(C=Cc2cc[n+](CC)c3ccccc23)c2cc[n+](CC)c3ccccc23)c2ccccc21.[I-].[I-] [lumin, 4,4′-[3-[2-[1-ethyl-4(1H)-quinolinylidene]ethylidene]-1-propene-1,3-diyl]bis(1-ethylquinolinium) diiodide] |  |  |  |  |  |  |  | did not affect | prevented | reduced | partially prevented |
| COc1cccc(OCCn2cc(/C=N/n3cnnc3)c3ccccc32)c1 [B6, 1-{2-[3-((1E)-2-(1,2,4-triazol-4-yl)-2-azavinyl)indolyl]ethoxy}-3-methoxybenzene] |  | neither A3, A48, A63, nor B6 had any effect |  | prevented | small effect | prevented the increase | reduced |  |  |  |  |

Reference: publication PMC5865651, “Novel inhibitor candidates of TRPV2 prevent damage of dystrophic myocytes and ameliorate against dilated cardiomyopathy in a hamster model” (Oncotarget, 2018)
